The values that follow come from patent US6566395B1, “Methods of treating proliferative disorders” (BioMedicines, Inc., priority 1999, dated 2003).

In one experiment the test system is CCRF-CEM (Leukemia). As to the kind of experiment: In vitro tumor cell growth inhibition, MTS dye conversion assay, CCRF-CEM. To be noted: Homo sapiens, 4-6 days, read-out: IC50 (concentration associated with 50% inhibition of cell growth). In kind it is cell-based. Here is the method:
(§1) The ability of the compounds of formula I to inhibit tumor cell growth was determined using the assay described in Cory A. H et al., Cancer Commun. 3(7):207-12, 1991.
(§2) Briefly, the assay is a […] method for determining the number of viable cells in proliferation or chemosensitivity assays.
(§3) Human tumor cell lines were propagated under sterile conditions in RPMI 1640 (CellGro) with […] fetal bovine serum (Gibco BRL), 2 mM L-glutamine, and sodium bicarbonate (complete medium). The cells were then incubated at 37° C. in HEPA-filtered Sterilcult CO2 tissue culture incubators (Forma) with 5% CO2 and 95% hymidity. Each cell line was subcultured weekly or biweekly. […]
(§4) The test compounds (100 μL), dissolved in DMSO (Sigma, cell culture grade) and diluted with complete medium, were added to 96-well plates containing attached cellular monolayers (5000 cells/well in 100 μL). […] Antiproliferative effects were assessed with the 3-(4,5-dimethylthiazol-2-yl)-5-(3-carboxymethoxyphenyl)-2-(4-sulfophenyl)-2H-tetrazolium, inner salt (MTS dye) conversion assay. […] The absorbance of formazan in each monolayer was measured at 490 nm on a Coulter microplate reader at 2 and 4 hours after the addition of the MTS solution.
(§5) Growth inhibition data are expressed as a percentage of absorbance detected in control wells and is proportional to the number of viable cells in the culture. […]

Another experiment concerns MCF7 (Breast). As to the kind of experiment: In vitro tumor cell growth inhibition, MTS dye conversion assay, MCF7. It counts as cell-based. The following applies: Homo sapiens, 4-6 days, read-out: IC50 (concentration associated with 50% inhibition of cell growth). The protocol:
as §1, §2, §3, §4, §5
(In general: Tetrazolium dyes change colour on reduction, which living cells bring about.)

Experiment [1] deals with OVCAR-5 ovarian cancer cell line. As to the kind of experiment: In vitro tumor cell growth inhibition, MTS dye conversion assay, OVCAR-5. In kind it is cell-based, Human. To be noted: Ovary, 4-6 days. The protocol: as §1, §2, §3, §4, §5
Experiment [2] deals with SW-620 colon cancer cell line. Description: In vitro tumor cell growth inhibition, MTS dye conversion assay, SW-620. It counts as cell-based, Human. To be noted: 4-6 days. The protocol:
as §1, §2, §3, §4, §5

Experiment [3] concerns C6 (Central Nervous System). Description: In vitro tumor cell growth inhibition, MTS dye conversion assay, C6. The following applies: Rattus norvegicus, 4-6 days, read-out: IC50 (concentration associated with 50% inhibition of cell growth). It counts as cell-based, Human. Here is the method: as §1, §2, §3, §4, §5
For another experiment, the system named is EKVX (Lung). As to the kind of experiment: In vitro tumor cell growth inhibition, MTS dye conversion assay, EKVX. In kind it is cell-based. To be noted: Homo sapiens, 4-6 days, read-out: IC50 (concentration associated with 50% inhibition of cell growth). Here is the method:
as §1, §2, §3, §4, §5

Where [4] appears, read: Homo sapiens, read-out: IC50 (concentration associated with 50% inhibition of cell growth).

Each structure is given as a SMILES string.

Turning to `Cc1cc(NC(=O)C(C#N)C(=O)C2CC2)ccc1C(F)(F)F` (centres unmarked) [laflunimus, N-(3-Methyl-4trifluoromethylphenyl) 2-Cyano-2-(cyclopropylcarbonyl)acetamide], the IC50 in the experiment with CCRF-CEM (Leukemia) turned out to be 28 µM; in the experiment with MCF7 (Breast) it was 13 µM; in experiment [1] (setting [4]) it was 13 µM; in experiment [2] (setting [4]), 6 µM; in experiment [3], 12 µM; in the experiment on EKVX (Lung), 14 µM.
`Cc1oncc1C(=O)Nc1ccc(C(F)(F)F)cc1` [lefunomide, 5-methylisoxazole-4-carboxylic acid-(4-trifluromethyl)-anilide, reference compound]: the “IC50 (concentration associated with 50% inhibition of cell growth)” value in experiment [1] and in experiment [2] was “did not achieve IC50 effects” in each case.
